# Measurements published in PubChem BioAssay AID1996.
# Details: buffer; pH 7.4; 200.0 µM
row,Structure (SMILES),solubility kinetic
1,CC1CN(S(=O)(=O)c2cc(C(=O)N3CCCCC3C)ccc2Cl)CC(C)O1 (centres undefined),> 62.2 µg/mL
2,CCOC(=O)N1CCN(Cc2nc3cc([N+](=O)[O-])ccc3n2C)CC1,50.7 µg/mL
3,CCOC(=O)c1c(C)nc(C)c2c(=O)oc3ccccc3c12,< 0.6 µg/mL
4,OC(COc1ccc2c(c1)OCO2)CN1CCCCC1 (centres undefined),32.5 µg/mL
5,CC(=O)N1CCN(CC(=O)Nc2ccc(C#N)c(Cl)c2)CC1,> 48.1 µg/mL
6,COc1cccc(C(=O)N2CCCN(C)CC2)c1OC,36.2 µg/mL
7,Cc1ccc2oc(Nc3nc(C)c(C)c(C)n3)nc2c1,2.4 µg/mL
8,O=c1cc(N2CCCC2)c2ccccc2o1,> 32.3 µg/mL
9,CCOc1cc(/C=C\c2nc(O)c([N+](=O)[O-])c(=O)[nH]2)ccc1OC(C)C,> 54.2 µg/mL
10,Clc1ccc(-c2noc(CN3CCOCC3)n2)cc1,> 42 µg/mL
11,CC(C)(C)Nc1nc2cc([N+](=O)[O-])ccc2o1,10.9 µg/mL
12,Cc1ccc(/C(O)=C/C(=O)C(=O)NC23CC4CC(CC(C4)C2)C3)cc1,8.4 µg/mL
13,CC(=O)N1CCN(C(=O)COC(=O)c2ccc(S(C)(=O)=O)cc2)CC1,> 55.3 µg/mL
14,CC1(C)Cc2nc(Cl)c(C(N)=O)cc2CO1,> 36.1 µg/mL
15,CCN(CC)C(=O)c1c(C)[nH]c(=S)c(C#N)c1-c1ccco1,> 47.3 µg/mL
16,O=C(NCCO)/C(=C\c1ccco1)NC(=O)c1ccco1,35 µg/mL
17,COc1ccccc1C(=O)C1CCCN(C(=O)C2CCCC2)C1 (centres undefined),> 47.3 µg/mL
18,CCOc1ncccc1C(=O)OC(C)C(=O)NC1CCCCC1 (centres undefined),> 48.1 µg/mL
19,CCOc1ccc(OCCC(=O)OCC(=O)NC2CC2)cc1,> 46.1 µg/mL
20,NS(=O)(=O)c1cc(C(=O)OC2CCOC2=O)ccc1Cl (centres undefined),> 48 µg/mL
21,CC1CC(C)CN(C(=O)COC(=O)c2ccc3c(c2)OCO3)C1 (centres undefined),47 µg/mL
22,C#CC[N+](C)(C)CC#Cc1ccc(C)cc1.[Br-],> 43.8 µg/mL
23,CSCCC1NC(=O)N(CC(=O)Nc2ccc(Cl)c(S(=O)(=O)N3CCOCC3)c2)C1=O (centres undefined),> 73.6 µg/mL
24,CC(OC(=O)Cc1ccc(Br)cc1)C(=O)NC1CCCC1 (centres undefined),48.7 µg/mL
25,CCN(CC)C1CCS(=O)(=O)C1.Cl (centres undefined),> 34.2 µg/mL

# The next lines start with the values.
row,solubility kinetic,Structure (SMILES)
1,1 µg/mL,COc1ccc2oc(=O)c(C(=O)Nc3ccccc3O)cc2c1
2,7.9 µg/mL,CCc1cccc(NC(=S)N(CCOC)C(C)c2ccco2)c1 (centres undefined)
3,1.2 µg/mL,CCOc1ccc2oc(C(=O)Nc3cc(C)ccn3)c(C)c2c1
4,0.5 µg/mL,O=[N+]([O-])c1ccc(N2CCN(c3ccccc3O)CC2)cc1
5,1 µg/mL,O=C(Nc1ccc(Cl)cc1)/C(=C1\CCCN1)[N+](=O)[O-]
6,4.6 µg/mL,COC(=O)c1ccc(CNC(=O)COC(=O)/C=C/c2cc(OC)c(OC)c(OC)c2)cc1
7,41 µg/mL,O=C(Nc1ccc2c(c1)C(=O)OC2)c1ccccc1Cl
8,> 50.2 µg/mL,O=C(O)CC(CC(=O)Nc1ccc2ccccc2n1)c1ccccc1 (centres undefined)
9,49.9 µg/mL,COc1ccc(C(=O)N(c2ccccn2)C2CCCCC2)c(OC)c1
10,> 38.1 µg/mL,O=C(N/N=C/c1ccccc1)C(O)c1ccccc1 (centres undefined)
11,20.3 µg/mL,Nc1cccc2c1C(=O)N(CCOc1ccccc1F)C2=O
12,> 29.6 µg/mL,N#Cc1ccc(Oc2ncccn2)cc1
13,> 49.7 µg/mL,Cc1cc(C)nc(SCC(=O)OCC(=O)Nc2ccccc2)n1
14,3.1 µg/mL,Cc1ccc(NC(=O)c2ccc([N+](=O)[O-])s2)cc1S(=O)(=O)N1CCOCC1
15,5.2 µg/mL,Cc1ccnc(NC(=O)c2cc3cc(F)ccc3s2)c1
16,> 43.7 µg/mL,NS(=O)(=O)c1ccc(CNC(=O)c2ccccn2)cc1
17,5.8 µg/mL,O=C(Nc1cccc2ccccc12)c1cccc(F)c1

row,solubility kinetic,Structure (SMILES)
1,47.4 µg/mL,CCN(C(=O)COC(=O)c1ccco1)c1cccc2ccccc12
2,14.9 µg/mL,O=C(Nc1ccc(OC(F)(F)F)cc1)c1ccc2nc[nH]c2c1
3,50.2 µg/mL,CC1C(=O)N2CCCc3cc(NC(=O)COc4ccccc4)cc1c32 (centres undefined)
4,46 µg/mL,COc1ccc(OCC(O)CNC(=O)c2sccc2Cl)cc1 (centres undefined)
5,< 0.2 µg/mL,Clc1cnc2nc(SC/C=C/c3ccccc3)[nH]c2c1
6,1.3 µg/mL,COc1ccc(N2CCN(C(=S)Nc3ccccc3)CC2)cc1
7,2.1 µg/mL,COc1ccc(OC)c(N/C=C/C(=O)c2ccccc2)c1
8,> 64 µg/mL,N#Cc1ccc(C(=O)OCC(=O)Nc2cccc(S(=O)(=O)NC3=NCCC3)c2)cc1
9,> 50.2 µg/mL,NS(=O)(=O)c1ccc(CNC(=O)c2ccc3c(c2)OCO3)cc1
10,31.4 µg/mL,c1ccc(CCNc2nc(-c3ccccn3)nc3ccccc23)cc1
11,> 33.5 µg/mL,Cc1cc(-c2nc3ccccc3[nH]2)ccc1N
12,> 39.9 µg/mL,COCCNC(=S)Nc1ccc2[nH]c(=O)[nH]c2c1
13,15.3 µg/mL,COc1ccc2cc[nH]c2c1
14,48 µg/mL,CCC(=O)NCCc1nc2cc(NC(=O)c3ccco3)ccc2n1C
15,38.7 µg/mL,CN(CC(=O)NCCc1ccc(F)cc1)Cc1ccccc1
16,> 41.9 µg/mL,NC(=O)CN1C(=O)C(=O)N(Cc2ccc(F)cc2)C1=O
17,> 51.2 µg/mL,COc1ccc(C2=NOC(C(=O)NCc3cccnc3)C2)cc1OC (centres undefined)
